Assay results as given in patent US9233989B2, “Sila analogs of oxazolidinone derivatives and synthesis thereof” (Council of Scientific & Industrial Research, priority 2011, dated 2016).
In brackets after ≈: the same amount, converted by molar mass. Read-outs that look alike come from different tables or passages of the source.

Tests used:
[1] = system: Mycobacterium tuberculosis H37Rv; test: Anti-TB activity, colorimetric resazurin microtiter assay; format: cell-based; details: read-out: MIC, Minimum Inhibitory Concentration (90%)
[2] = system: E.faecalis ATCC 51299(VRE&HLAR); test: MIC by microbroth dilution method; format: cell-based
[3] = system: E.faecalis ATCC 29212; test: MIC by microbroth dilution method; format: cell-based
[4] = system: E.faecalis ATCC 19433; test: MIC by microbroth dilution method; format: cell-based
[5] = system: E.faecium ATCC 3567; test: MIC by microbroth dilution method; format: cell-based
[6] = system: S.aureus ATCC 13709 Smith; test: MIC by microbroth dilution method; format: cell-based
[7] = system: S.aureus ATCC 29213; test: MIC by microbroth dilution method; format: cell-based
[8] = system: MRSA ATCC BAA 39; test: MIC by microbroth dilution method; format: cell-based, S. aureus
[9] = system: S.aureus 13709 LNZ mutant; format: cell-based
[10] = system: E.faecium 6A VRE; test: MIC by microbroth dilution method; format: cell-based
[11] = system: S.epidermis St 358; test: MIC by microbroth dilution method; format: cell-based, S. epidermidis
[12] = system: MRSA 562; test: MIC by microbroth dilution method; format: cell-based, S. aureus
[13] = system: E.faecium ATCC 19434; test: MIC by microbroth dilution method; format: cell-based
[14] = system: MRSA 0-2657; test: MIC by microbroth dilution method; format: cell-based, S. aureus
[15] = system: E.faecium 06076 VRE; test: MIC by microbroth dilution method; format: cell-based
[16] = system: E.faecium ATCC 35667; test: MIC by microbroth dilution method; format: cell-based
[17] = system: E.faecium ATCC 49224; test: MIC by microbroth dilution method; format: cell-based
[18] = system: E.faecium 134 VRE; test: MIC by microbroth dilution method; format: cell-based
[19] = system: S.aureus ATCC 49775 PVL + ve; format: cell-based
[20] = system: S.aureus ATCC 700699 Mu50; test: MIC by microbroth dilution method; format: cell-based
[21] = system: MRSE ATCC 35983; test: MIC by microbroth dilution method; format: cell-based, S. epidermidis
[22] = system: MRSA ATCC 43300; test: MIC by microbroth dilution method; format: cell-based, S. aureus
[23] = system: MRSA DB 00026; test: MIC by microbroth dilution method; format: cell-based, S. aureus
[24] = system: S.epidermidis ATCC 14990; test: MIC by microbroth dilution method; format: cell-based
[25] = system: MRSE ATCC 35984; test: MIC by microbroth dilution method; format: cell-based, S. epidermidis
[26] = system: MRSA 252 BAA 1720; test: MIC by microbroth dilution method; format: cell-based, S. aureus
[27] = system: S.aureus2 (PVL + ve); format: cell-based, S. aureus
[28] = system: S.epidermidis ATCC 12228; test: MIC by microbroth dilution method; format: cell-based
[29] = system: E.coli 7632; test: MIC by microbroth dilution method; format: cell-based
[30] = system: E.faecalis SP 346 VRE; test: MIC by microbroth dilution method; format: cell-based
[31] = system: S.aureus DB00026; test: MIC by microbroth dilution method; format: cell-based
[32] = system: S.aureus ATCC Newman 25904; test: MIC by microbroth dilution method; format: cell-based
[33] = Mycobacterium tuberculosis, H37RV

SMILES | MIC [1, 33] | MIC [2] | MIC [3] | MIC [4] | MIC [5] | MIC [6] | MIC [7] | MIC [8] | MIC [9] | MIC [10] | MIC [11] | MIC [12] | MIC [13] | MIC [14] | MIC [15] | MIC [16] | MIC [17] | MIC [18] | MIC [19] | MIC [20] | also measured
C[Si]1(C)CCN(c2ccc(N3C[C@H](CN)OC3=O)cc2F)CC1 [NDS-10057, (S)-5-(aminomethyl)-3-(4-(4,4-dimethyl-1,4-azasilinan-1-yl)-3-fluorophenyl)oxazolidin-2-one] | 25 µg/mL (≈ 74.1 µM) | 16 µg/mL (≈ 47.4 µM) | > 32 µg/mL | 32 µg/mL (≈ 94.8 µM) | > 32 µg/mL | > 32 µg/mL | > 32 µg/mL | > 32 µg/mL | > 32 µg/mL | > 32 µg/mL | > 32 µg/mL | > 32 µg/mL | 32 µg/mL (≈ 94.8 µM) | > 32 µg/mL | > 32 µg/mL | 32 µg/mL (≈ 94.8 µM) | 32 µg/mL (≈ 94.8 µM) | 32 µg/mL (≈ 94.8 µM) | > 32 µg/mL | > 32 µg/mL | MIC [21]: > 32 µg/mL; MIC [22]: > 32 µg/mL; MIC [23]: > 32 µg/mL; MIC [24]: > 32 µg/mL; MIC [25]: 32 µg/mL (≈ 94.8 µM); MIC [26]: > 32 µg/mL; MIC [27]: > 32 µg/mL; MIC [28]: > 32 µg/mL; MIC [29]: 32 µg/mL (≈ 94.8 µM); MIC [30]: > 32 µg/mL; MIC [31]: > 32 µg/mL; MIC [32]: > 32 µg/mL
CO[C@H]1/C=C/O[C@@]2(C)Oc3c(C)c(O)c4c(O)c(c(/C=N/N5CCN(C)CC5)c(O)c4c3C2=O)NC(=O)/C(C)=C\C=C\[C@H](C)[C@H](O)[C@@H](C)[C@@H](O)[C@@H](C)[C@H](OC(C)=O)[C@@H]1C [Rifampicin, reference compound] | – | – | – | – | – | – | – | – | – | – | – | – | – | – | – | – | – | – | – | – | MIC ([1]; inhibition of Mycobacterium tuberculosis H37Rv growth, 7H9-OADC media, 37° C., visual readout): 0.3 µg/mL (≈ 0.365 µM)
CC(=O)NC[C@H]1CN(c2cc(F)c(N3CC[Si](C)(C)CC3)c(F)c2)C(=O)O1 [NDS-10028, (S)—N-((3-(4-(4,4-dimethyl-1,4-azasilinan-1-yl)-3,5-difluorophenyl)-2-oxooxazolidin-5-yl)methyl)acetamide] | > 50 µg/mL | 8 µg/mL (≈ 20.1 µM) | 8 µg/mL (≈ 20.1 µM) | 16 µg/mL (≈ 40.3 µM) | 16 µg/mL (≈ 40.3 µM) | 8 µg/mL (≈ 20.1 µM) | > 16 µg/mL | 8 µg/mL (≈ 20.1 µM) | > 16 µg/mL | 4 µg/mL (≈ 10.1 µM) | 8 µg/mL (≈ 20.1 µM) | 8 µg/mL (≈ 20.1 µM) | 8 µg/mL (≈ 20.1 µM) | 8 µg/mL (≈ 20.1 µM) | 8 µg/mL (≈ 20.1 µM) | 8 µg/mL (≈ 20.1 µM) | 8 µg/mL (≈ 20.1 µM) | 8 µg/mL (≈ 20.1 µM) | 16 µg/mL (≈ 40.3 µM) | 8 µg/mL (≈ 20.1 µM) | MIC [21]: 4 µg/mL (≈ 10.1 µM); MIC [22]: > 32 µg/mL; MIC [23]: 8 µg/mL (≈ 20.1 µM); MIC [24]: 4 µg/mL (≈ 10.1 µM); MIC [25]: 8 µg/mL (≈ 20.1 µM); MIC [26]: > 32 µg/mL; MIC [27]: > 32 µg/mL; MIC [28]: 4 µg/mL (≈ 10.1 µM); MIC [29]: > 32 µg/mL; MIC [30]: 8 µg/mL (≈ 20.1 µM); MIC [31]: > 32 µg/mL; MIC [32]: > 32 µg/mL
CC(=O)NC[C@H]1CN(c2cc(F)c(N3CC[Si](C)(c4ccccc4)CC3)c(F)c2)C(=O)O1 [NDS-10068, (S)—N-((3-(3,5-difluoro-4-(4-methyl-4-phenyl-1,4-azasilinan-1-yl)phenyl)-2-oxooxazolidin-5-yl)methyl)acetamide] | > 100 µg/mL | – | – | – | – | – | – | – | – | – | – | – | – | – | – | – | – | – | – | – | –
C[Si]1(C)CCN(c2c(F)cc(N3C[C@H](CN)OC3=O)cc2F)CC1 [NDS-10054, (S)-5-(aminomethyl)-3-(4-(4,4-dimethyl-1,4-azasilinan-1-yl)-3,5-difluorophenyl)oxazolidin-2-one] | 25 µg/mL (≈ 70.3 µM) | 16 µg/mL (≈ 45 µM) | 16 µg/mL (≈ 45 µM) | 16 µg/mL (≈ 45 µM) | 8 µg/mL (≈ 22.5 µM) | 16 µg/mL (≈ 45 µM) | 16 µg/mL (≈ 45 µM) | 16 µg/mL (≈ 45 µM) | 32 µg/mL (≈ 90 µM) | 8 µg/mL (≈ 22.5 µM) | 16 µg/mL (≈ 45 µM) | 16 µg/mL (≈ 45 µM) | 16 µg/mL (≈ 45 µM) | 16 µg/mL (≈ 45 µM) | 16 µg/mL (≈ 45 µM) | 8 µg/mL (≈ 22.5 µM) | 16 µg/mL (≈ 45 µM) | 16 µg/mL (≈ 45 µM) | 16 µg/mL (≈ 45 µM) | 16 µg/mL (≈ 45 µM) | MIC [21]: 32 µg/mL (≈ 90 µM); MIC [22]: 16 µg/mL (≈ 45 µM); MIC [23]: 16 µg/mL (≈ 45 µM); MIC [24]: 16 µg/mL (≈ 45 µM); MIC [25]: 16 µg/mL (≈ 45 µM); MIC [26]: 16 µg/mL (≈ 45 µM); MIC [27]: 16 µg/mL (≈ 45 µM); MIC [28]: 32 µg/mL (≈ 90 µM); MIC [29]: > 32 µg/mL; MIC [30]: 16 µg/mL (≈ 45 µM); MIC [31]: 16 µg/mL (≈ 45 µM); MIC [32]: 16 µg/mL (≈ 45 µM)
